From patent publication US11590116B2 (THERAVANCE BIOPHARMA R&D IP, LLC, priority 2019, dated 2023) come the findings set out here.

Each structure is given as a SMILES string. Some results are limits rather than exact numbers.

In test [1] the target is T1, recombinant human ALK5 (TGF-βR1) protein (Homo sapiens, UniProt P36897).
T1 construct: purchased Life Technologies PR9075A
T1 sequence (P36897 34-503): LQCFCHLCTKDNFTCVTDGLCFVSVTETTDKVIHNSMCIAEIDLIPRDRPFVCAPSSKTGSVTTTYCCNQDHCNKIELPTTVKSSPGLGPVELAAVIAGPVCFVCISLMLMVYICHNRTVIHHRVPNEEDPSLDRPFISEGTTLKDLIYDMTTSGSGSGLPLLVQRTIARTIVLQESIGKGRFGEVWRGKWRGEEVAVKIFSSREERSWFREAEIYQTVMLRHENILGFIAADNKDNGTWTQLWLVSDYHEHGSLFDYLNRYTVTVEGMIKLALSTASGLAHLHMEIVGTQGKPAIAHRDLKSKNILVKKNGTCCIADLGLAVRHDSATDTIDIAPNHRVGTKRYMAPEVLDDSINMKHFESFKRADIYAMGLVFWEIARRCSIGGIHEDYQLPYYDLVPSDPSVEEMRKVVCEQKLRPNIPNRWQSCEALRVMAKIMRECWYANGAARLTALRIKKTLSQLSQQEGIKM
The test is described as follows: Biochemical ALK5 (TGF-βR1) assay to measure pKi (LANCE Ultra ULight kinase assay). To be noted: apparent pKi from pIC50 by Cheng-Prusoff, read-out: ALK5 pKi (converted). The method, boiled down:
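Compounds (10 μM to 25 pM) were preincubated 60 min at room temperature with enzyme, then reactions were started with ATP (125 μM stock, 5× final) and run 60 min at 37 °C. EDTA-containing Eu-anti-phospho-Topo IIα (Thr1342) antibody stopped the reaction; TR-FRET read at 665 nm. pIC50 from 4-parameter fit, converted to pKi via Cheng-Prusoff.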

Test [2] has as its system TGF-β-stimulated SMAD3 phosphorylation in BEAS-2B cells. The test is described as follows: Cellular ALK5 potency assay, inhibition of TGF-β stimulated pSMAD3 formation in BEAS-2B cells. To be noted: Homo sapiens; inhibition of TGF-β stimulated pSMAD3 formation, BEAS-2B cells; read-out: BEAS2B pIC50 (converted). The test is classed as cell-based. The method, boiled down:
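BEAS-2B human lung epithelial cells pre-treated 1 h at 37° C with compound in HBSS/25 mM HEPES/1% BSA, then stimulated 30 min with 10 ng/mL TGF-β (final). Lysates assayed for pSMAD3 by AlphaLISA; pIC50 from dose-dependent change versus stimulated untreated cells.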

On to `Cc1cccc(-c2[nH]cnc2-c2ccc3ncc(-c4cncc(C(=O)OC5CCNCC5)c4)cc3c2)n1` [Compound 136, 4-piperidyl 5-[6-[5-(6-methyl-2-pyridyl)-1H-imidazol-4-yl]-3-quinolyl]pyridine-3-carboxylate], for which, in test [1], the Ki is 0.0398 to 0.316 nM. The IC50 in test [2] is 200 to 1260 nM.

For the compound `Cc1cccc(-c2nc3ccccn3c2-c2ccc3ncc(-c4nnn5c4CNCC5)cc3n2)n1` [Compound 207, 2-[2-(6-methyl-2-pyridyl)imidazo[1,2-a]pyridin-3-yl]-7-(4,5,6,7-tetrahydrotriazolo[1,5-a]pyrazin-3-yl)-1,5-naphthyridine], the Ki in test [1] is 0.0398 to 0.316 nM. In addition, the IC50 in test [2] was 25.1 to 158 nM.

For `Cc1cccc(-c2n[nH]cc2-c2ccc3ncc(C4CCNCC4)cc3n2)n1` [Compound 470, 2-[3-(6-methyl-2-pyridyl)-1H-pyrazol-4-yl]-7-(4-piperidyl)-1,5-naphthyridine], the Ki in test [1] is 0.398 to 3.16 nM. The IC50 in test [2] was 25.1 to 158 nM.

As for `Cc1cccc(-c2[nH]cnc2-c2ccc3ncc(N4CCNC(CC(=O)OCC5CNC5)C4)cc3c2)n1` (stereo not shown) [Compound 491, azetidin-3-ylmethyl 2-[4-[6-[5-(6-methyl-2-pyridyl)-1H-imidazol-4-yl]-3-quinolyl]piperazin-2-yl]acetate], the Ki in test [1] was 0.0398 to 0.316 nM. Besides, the IC50 in test [2] was 200 to 1260 nM.

`Cc1cccc(-c2[nH]cnc2-c2ccc3ncc(C4=CC[C@H](NC(=O)[C@@H]5CCCN5)CC4)cc3c2)n1` [Compound 418, (2S)—N-[(1R)-4-[6-[5-(6-methyl-2-pyridyl)-1H-imidazol-4-yl]-3-quinolyl]cyclohex-3-en-1-yl]pyrrolidine-2-carboxamide]: in test [1], the Ki is 0.0398 to 0.316 nM. For the same compound, the IC50 in test [2] was 25.1 to 158 nM.

On to `Cc1cccc(-c2n[nH]cc2-c2ccc3ncc(CNCCCN4CCOCC4)cc3n2)n1` [Compound 155, N-[[6-[3-(6-methyl-2-pyridyl)-1H-pyrazol-4-yl]-1,5-naphthyridin-3-yl]methyl]-3-morpholino-propan-1-amine], for which the Ki in test [1] was 0.398 to 3.16 nM. The IC50 in test [2] was 25.1 to 158 nM.

Consider `Cc1cccc(-c2[nH]ncc2-c2ccc3ncc(C(=O)OCC4CNC4)cc3n2)n1` [Compound 419, azetidin-3-ylmethyl 6-[5-(6-methyl-2-pyridyl)-1H-pyrazol-4-yl]-1,5-naphthyridine-3-carboxylate], for which, in test [1], the Ki was 0.0398 to 0.316 nM. Further, the IC50 in test [2] is 25.1 to 158 nM.

Take `Cc1cccc(-c2[nH]cnc2-c2ccc3ncc(C(=O)OCC4CCNCC4)cc3c2)n1` [Compound 741, 4-piperidylmethyl 6-[5-(6-methyl-2-pyridyl)-1H-imidazol-4-yl]quinoline-3-carboxylate]: the Ki in test [1] is 0.0398 to 0.316 nM. Also, in test [2], the IC50 is 25.1 to 158 nM.

As for `Cc1cccc(-c2[nH]cnc2-c2ccc3ncc(NCCN4CC(N)C4)cc3c2)n1` [Compound 476, N-[2-(3-aminoazetidin-1-yl)ethyl]-6-[5-(6-methyl-2-pyridyl)-1H-imidazol-4-yl]quinolin-3-amine], the Ki in test [1] is 0.0398 to 0.316 nM. Further, the IC50 in test [2] is 25.1 to 158 nM.

Consider `COc1nc(-c2ccc3ncc(Br)cc3c2)c(-c2cccc(C)n2)[nH]1` [Compound 1202, 3-bromo-6-[2-methoxy-5-(6-methyl-2-pyridyl)-1H-imidazol-4-yl]quinoline], for which the Ki in test [1] is 0.398 to 3.16 nM. The IC50 in test [2] was 25.1 to 158 nM.

`Cc1cccc(-c2[nH]cnc2-c2ccc3ncc(-c4csc(C(=O)O)n4)cc3c2)n1` [Compound 1152, 4-[6-[5-(6-methyl-2-pyridyl)-1H-imidazol-4-yl]-3-quinolyl]thiazole-2-carboxylic acid]: in test [1], the Ki was less than 0.0316 nM. Moreover, the IC50 in test [2] was less than 20 nM.

On to `Cc1cccc(-c2n[nH]cc2-c2ccc3ncc(-c4ccc[nH]4)cc3n2)n1` [Compound 591, 2-[3-(6-methyl-2-pyridyl)-1H-pyrazol-4-yl]-7-(1H-pyrrol-2-yl)-1,5-naphthyridine], for which the Ki in test [1] was less than 0.0316 nM. Further, the IC50 in test [2] is less than 20 nM.

`Cc1cccc(-c2[nH]ncc2-c2ccc3nccc(C(=O)OC4CCNCC4)c3c2)n1` [Compound 1210, 4-piperidyl 6-[5-(6-methyl-2-pyridyl)-1H-pyrazol-4-yl]quinoline-4-carboxylate]: the Ki in test [1] was 0.0398 to 0.316 nM. Besides, the IC50 in test [2] was 25.1 to 158 nM.

Turning to `Cc1cccc(-c2[nH]cnc2-c2ccc3ncc(-c4ccc(C(=O)O[C@@H]5CCN(C)C5)cc4)cc3c2)n1` [Compound 158, [(3R)-1-methylpyrrolidin-3-yl] 4-[6-[5-(6-methyl-2-pyridyl)-1H-imidazol-4-yl]-3-quinolyl]benzoate], the Ki in test [1] is 0.0398 to 0.316 nM. Also, the IC50 in test [2] is 25.1 to 158 nM.

As for `Cc1cccc(-c2[nH]cnc2-c2ccc3ncc(-c4ccc5c(c4)CNCC5)cc3c2)n1` [Compound 609, 6-[5-(6-methyl-2-pyridyl)-1H-imidazol-4-yl]-3-(1,2,3,4-tetrahydroisoquinolin-7-yl)quinoline], the Ki in test [1] was 0.0398 to 0.316 nM. Besides, the IC50 in test [2] is less than 20 nM.

In the case of `COC(Cc1ccnc2ccc(-c3c[nH]nc3-c3cccc(C)n3)nc12)OC` [Compound 860, 8-(2,2-dimethoxyethyl)-2-[3-(6-methyl-2-pyridyl)-1H-pyrazol-4-yl]-1,5-naphthyridine], the Ki in test [1] was 0.398 to 3.16 nM. In test [2], the IC50 was 25.1 to 158 nM.

For the compound `Cc1cccc(-c2[nH]cnc2-c2ccc3ncc(-c4cccc(C(=O)O[C@H]5CCNC5)c4)cc3c2)n1` [Compound 707, [(3S)-pyrrolidin-3-yl] 3-[6-[5-(6-methyl-2-pyridyl)-1H-imidazol-4-yl]-3-quinolyl]benzoate], the Ki in test [1] was 0.0398 to 0.316 nM. Also, the IC50 in test [2] was 25.1 to 158 nM.

In the case of `Cc1cccc(-c2[nH]c(CNc3ccccc3F)nc2-c2ccc3ncc(N4CCC(N(C)C)C4)cc3c2)n1` (racemic) [Compound 652, rac-(3S)-1-[6-[2-[(2-fluoroanilino)methyl]-5-(6-methyl-2-pyridyl)-1H-imidazol-4-yl]-3-quinolyl]-N,N-dimethyl-pyrrolidin-3-amine], the Ki in test [1] was 0.0398 to 0.316 nM. For the same compound, in test [2], the IC50 is 200 to 1260 nM.

For the compound `Cc1cccc(-c2n[nH]cc2-c2ccc3nccc(CN4CCOCC4)c3n2)n1` [Compound 811, 4-[[6-[3-(6-methyl-2-pyridyl)-1H-pyrazol-4-yl]-1,5-naphthyridin-4-yl]methyl]morpholine], in test [1], the Ki is 0.0398 to 0.316 nM. Moreover, the IC50 in test [2] is 200 to 1260 nM.

As for `Cc1cccc(-c2n[nH]cc2-c2ccc3ncc(-c4ccccc4)cc3n2)n1` [Compound 398, 2-[3-(6-methyl-2-pyridyl)-1H-pyrazol-4-yl]-7-phenyl-1,5-naphthyridine], the Ki in test [1] was less than 0.0316 nM. The IC50 in test [2] was less than 20 nM.

As to `Cc1cccc(-c2n[nH]cc2-c2ccc3nccc(-c4cnoc4)c3n2)n1` [Compound 832, 4-[6-[3-(6-methyl-2-pyridyl)-1H-pyrazol-4-yl]-1,5-naphthyridin-4-yl]isoxazole], the Ki in test [1] was 0.0398 to 0.316 nM. The IC50 in test [2] is 25.1 to 158 nM.

For `Cc1cccc(-c2[nH]cnc2-c2ccc3ncc(N4CC5(CCNCC5)C4)cc3c2)n1` [Compound 179, 3-(2,7-diazaspiro[3.5]nonan-2-yl)-6-[5-(6-methyl-2-pyridyl)-1H-imidazol-4-yl]quinoline], the Ki in test [1] is 0.0398 to 0.316 nM. For the same compound, the IC50 in test [2] is 25.1 to 158 nM.

`Cc1nc(-c2n[nH]cc2-c2ccc3ncc(-c4ncn5c4NCC5)cc3n2)ccc1F` [Compound 284, 7-(2,3-dihydro-1H-imidazo[1,5-a]imidazol-7-yl)-2-[3-(5-fluoro-6-methyl-2-pyridyl)-1H-pyrazol-4-yl]-1,5-naphthyridine]: the Ki in test [1] was 0.0398 to 0.316 nM. Moreover, the IC50 in test [2] was 25.1 to 158 nM.
